These results are taken from patent US8900720B2, “Multi-functional wood preservatives based on a borate/fatty acid combination” (Summerdale, Inc, priority 2010, dated 2014).

The assay has as its system mold fungi. The assay can be described thus: Moldicide assay on treated southern yellow pine stakes (ASTM D4445-91, ASTM D3273-00). Type of assay: cell-based. The conditions noted are these: dip-treated stakes, relative to the water control.

Protocol: All moldicide assays were conducted via ASTM standard D4445-91 (1998) and ASTM D3273-00 (1986).
Six groups of southern yellow pine stakes (12 replicates) were dip-treated (30 seconds) with treatments 3-1 through 3-6, inoculated with mold spores, incubated, and examined after 12 weeks (Table 3).
Six groups of southern yellow pine stakes (12 replicates) were dip-treated (30 seconds) with treatments 4-1 through 4-6, inoculated with mold spores, incubated, and examined after 12 weeks.

As for `OB(O)O` [Boric acid, boric acid], the “moldicide activity (in words)” value is listed as “no moldicide activity”.

For the compound `O.O.O.O.O=BOB1OB(OB=O)OB2OB([O-])OB([O-])OB(O1)O2.[Na+].[Na+]` [DOT, disodium octaborate tetrahydrate], the “moldicide activity (in words)” value is on record as “no moldicide activity”.
